This is an account of results in patent publication US10562912B2 (C&C Research Laboratories, priority 2013, dated 2020).

Format in all cases: cell-based
Experiment [1] has as its target T1, STAT3 (Homo sapiens, UniProt P40763).
T1 construct: plasmid pSTAT3-TA-luc), which contains a stably operating STAT3 promoter; endogenous in cells
The experiment in a line: STAT3 reporter gene assay (luciferase), LNCaP stable cell line (pSTAT3-TA-luc), IL-6 stimulation. The method in brief: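 LNCaP cells stably carrying pSTAT3-TA-luc, in RPMI1640 with 3% DCC-FBS, were treated with compound and then stimulated with 10 ng/mL IL-6 for 24–48 h at 37 °C. Luciferase activity was measured in lysates. A parallel plate measured viability by CellTiter-Glo, with stimulated 0.1% DMSO wells as the positive control.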

Experiment [2] deals with MDA-MB-231. The experiment is described as follows: Cell growth inhibition assay, breast cancer cell line MDA-MB-231. As to conditions: Homo sapiens; MDA-MB-231 breast cancer cell line, 5,000 cells/well.
For experiment [3], the system named is LNCaP. The experiment is described as follows: Cell growth inhibition assay, prostate cancer cell line LNCaP (medium with 10 ng/mL IL-6). As to conditions: Homo sapiens, medium supplemented with 10 ng/mL of IL-6, 10,000 cells/well.

T1 sequence (P40763 whole entry): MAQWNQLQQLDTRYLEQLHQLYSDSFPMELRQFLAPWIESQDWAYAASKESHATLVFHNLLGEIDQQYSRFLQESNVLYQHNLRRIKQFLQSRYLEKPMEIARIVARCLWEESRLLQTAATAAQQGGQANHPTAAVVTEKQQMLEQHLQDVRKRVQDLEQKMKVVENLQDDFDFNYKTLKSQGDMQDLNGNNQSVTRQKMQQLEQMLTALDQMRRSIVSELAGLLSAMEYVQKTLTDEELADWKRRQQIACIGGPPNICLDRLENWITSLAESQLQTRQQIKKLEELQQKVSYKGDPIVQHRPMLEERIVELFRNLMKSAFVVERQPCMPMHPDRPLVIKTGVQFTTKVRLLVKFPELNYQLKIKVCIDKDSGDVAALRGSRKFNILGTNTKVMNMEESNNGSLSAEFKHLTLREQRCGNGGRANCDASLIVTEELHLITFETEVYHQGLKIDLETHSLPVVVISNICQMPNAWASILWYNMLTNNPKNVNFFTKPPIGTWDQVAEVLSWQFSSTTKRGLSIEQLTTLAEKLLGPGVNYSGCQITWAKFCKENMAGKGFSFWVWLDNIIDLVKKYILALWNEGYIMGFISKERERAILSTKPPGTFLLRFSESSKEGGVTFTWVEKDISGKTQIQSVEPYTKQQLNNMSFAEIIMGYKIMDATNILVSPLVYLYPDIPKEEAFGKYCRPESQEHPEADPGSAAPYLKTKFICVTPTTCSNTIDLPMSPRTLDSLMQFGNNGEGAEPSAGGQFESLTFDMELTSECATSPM

Regarding `CS(=O)(=O)Nc1ccc2cc(C(=O)Nc3cc(OC(F)F)cc(-c4ccc(F)cc4F)c3)[nH]c2c1` [Example 369, N-(5-(difluoromethoxy)-2′,4′-difluoro-[1,1′-biphenyl]-3-yl)-6-(methylsulfonamido)-1H-indole-2-carboxamide], the IC50 in experiment [1] stood at 0.7 µM; in experiment [2], 0.28 µM; in experiment [3], 3.8 µM.

On to `CS(=O)(=O)Nc1ccc2sc(C(=O)Nc3cc(OC(F)F)cc(-c4ccc(F)cc4F)c3)cc2c1` [Example 370, N-(5-(difluoromethoxy)-2′,4′-difluoro-[1,1′-biphenyl]-3-yl)-5-(methylsulfonamido)benzo[b]thiophene-2-carboxamide], for which the IC50 came to 0.21 µM in experiment [1], 0.032 µM in experiment [2] and 0.6 µM in experiment [3].

With `CS(=O)(=O)Nc1ccc2cc(C(=O)Nc3cc(-c4ccc(F)cc4F)cc(N4CCCCC4)c3)[nH]c2c1` [Example 371, N-(2′,4′-difluoro-5-(piperidin-1-yl)-[1,1′-biphenyl]-3-yl)-6-(methylsulfonamido)-1H-indole-2-carboxamide], the IC50 in experiment [1] was 0.9 µM; in experiment [2] it was 1.4 µM; in experiment [3], 7.8 µM.

On to `CN(C)c1cc(NC(=O)c2cc3ccc(NS(C)(=O)=O)cc3[nH]2)cc(-c2ccc(F)cc2F)c1` [Example 372, N-(5-(dimethylamino)-2′,4′-difluoro-[1,1′-biphenyl]-3-yl)-6-(methylsulfonamido)-1H-indole-2-carboxamide], for which the figures for the IC50 in experiment [1], in experiment [2] and in experiment [3] were 0.34 µM, 0.46 µM and 3.5 µM, respectively.

With `CNc1cc(NC(=O)c2cc3ccc(NS(C)(=O)=O)cc3[nH]2)cc(-c2ccc(F)cc2F)c1` [Example 373, N-(2′,4′-difluoro-5-(methylamino)-[1,1′-biphenyl]-3-yl)-6-(methylsulfonamido)-1H-indole-2-carboxamide], the IC50 was found to be 1.5 µM in experiment [1], 1 µM in experiment [2] and 4.4 µM in experiment [3].

With `CS(=O)(=O)Nc1ccc2cc(C(=O)Nc3cc(-c4ccc(F)cc4F)cc(N4CCOCC4)c3)[nH]c2c1` [Example 374, N-(2′,4′-difluoro-5-morpholino-[1,1′-biphenyl]-3-yl)-6-(methylsulfonamido)-1H-indole-2-carboxamide], the IC50 in experiment [1] was 6.4 µM; in experiment [2], 2.7 µM; in experiment [3], 9.9 µM.

In the case of `CN(C)c1cc(NC(=O)c2cc3cc(NS(C)(=O)=O)ccc3s2)cc(-c2ccc(F)cc2F)c1` [Example 375, N-(5-(dimethylamino)-2′,4′-difluoro-[1,1′-biphenyl]-3-yl)-5-(methylsulfonamido)benzo[b]thiophene-2-carboxamide], the results for the 50% inhibitory concentration (IC50) in experiment [1], in experiment [2] and in experiment [3] were 0.14 µM, 0.028 µM and 1.1 µM, respectively.

In the case of `CN(C)c1cc(NC(=O)c2cc3cc(NS(C)(=O)=O)ccc3o2)cc(-c2ccc(F)cc2F)c1` [Example 376, N-(5-(dimethylamino)-2′,4′-difluoro-[1,1′-biphenyl]-3-yl)-5-(methylsulfonamido)benzofuran-2-carboxamide], the IC50 worked out at 5.2 µM in experiment [1], 1.3 µM in experiment [2] and 7.7 µM in experiment [3].

For `COc1ccc(-c2cc(NC(=O)c3cc4ccc(NS(C)(=O)=O)cc4[nH]3)cc(-c3ccc(F)cc3F)c2)cn1` [Example 382, N-(2′,4′-difluoro-5-(6-methoxypyridin-3-yl)-[1,1′-biphenyl]-3-yl)-6-(methylsulfonamido)-1H-indole-2-carboxamide], the values for the IC50 in experiment [1], in experiment [2] and in experiment [3] were 0.33 µM, 0.91 µM and 3.8 µM, respectively.

Regarding `COc1cccc(-c2cc(NC(=O)c3cc4ccc(NS(C)(=O)=O)cc4[nH]3)cc(-c3ccc(F)cc3F)c2)n1` [Example 383, N-(2′,4′-difluoro-5-(6-methoxypyridin-2-yl)-[1,1′-biphenyl]-3-yl)-6-(methylsulfonamido)-1H-indole-2-carboxamide], the IC50 in experiment [1] was determined as 0.09 µM; in experiment [2] it was 2.33 µM; in experiment [3] it was 4.3 µM.

Regarding `CS(=O)(=O)Nc1ccc2cc(C(=O)Nc3cc(-c4cccc(O)n4)cc(-c4ccc(F)cc4F)c3)[nH]c2c1` [Example 384, N-(2′,4′-difluoro-5-(6-hydroxypyridin-2-yl)-[1,1′-biphenyl]-3-yl)-6-(methylsulfonamido)-1H-indole-2-carboxamide], the IC50 in experiment [1], in experiment [2] and in experiment [3] was greater than 10 µM throughout.

With `CS(=O)(=O)Nc1ccc2cc(C(=O)Nc3cccc(C(F)(F)c4ccccc4)c3)[nH]c2c1` [Example 387, N-(3-(difluoro(phenyl)methyl)phenyl)-6-(methylsulfonamido)-1H-indole-2-carboxamide], the IC50 in experiment [1] is 2.4 µM; in experiment [2] it was 1.17 µM; in experiment [3] it was 3.5 µM.

For `CS(=O)(=O)Nc1ccc2cc(C(=O)Nc3cccc(S(=O)(=O)c4cccc(N)c4)c3)[nH]c2c1` [Example 415, N-(3-((3-aminophenyl)sulfonyl)phenyl)-6-(methylsulfonamido)-1H-indole-2-carboxamide], the results for the 50% inhibitory concentration (IC50) in experiment [1], in experiment [2] and in experiment [3] were 6.8 µM, 8.4 µM and greater than 10 µM, respectively.

On to `C#Cc1cccc(S(=O)(=O)c2cccc(NC(=O)c3cc4ccc(NS(C)(=O)=O)cc4[nH]3)c2)c1` [Example 416], for which the IC50 in experiment [1] is 6 µM; in experiment [2], 2.6 µM; in experiment [3], 9 µM.

As to `CS(=O)(=O)Nc1ccc2cc(C(=O)Nc3cccc(S(=O)(=O)c4cc(O)cc(C#N)c4)c3)[nH]c2c1` [Example 417, N-(3-((3-cyano-5-hydroxyphenyl)sulfonyl)phenyl)-6-(methylsulfonamido)-1H-indole-2-carboxamide], the IC50 in experiment [1], in experiment [2] and in experiment [3] was greater than 10 µM each time.

As for `CS(=O)(=O)Nc1ccc2sc(C(=O)Nc3cccc(C4(c5ccccc5)CC4)c3)cc2c1` [Example 421, 5-(methylsulfonamido)-N-(3-(1-phenylcyclopropyl)phenyl)benzo[b]thiophene-2-carboxamide], the half-inhibitory concentration (IC50) is 0.2 µM in experiment [1], 0.089 µM in experiment [2] and 1.1 µM in experiment [3].

As to `CS(=O)(=O)Nc1ccc2cc(C(=O)Nc3cccc(C4(c5ccccc5)CC4)c3)[nH]c2c1` [Example 422, 6-(methylsulfonamido)-N-(3-(1-phenylcyclopropyl)phenyl)-1H-indole-2-carboxamide], the values for the half-maximal inhibitory concentration (IC50) in experiment [1], in experiment [2] and in experiment [3] were 0.76 µM, 0.54 µM and 2.1 µM, respectively.

As for `C=C(c1ccccc1)c1cccc(NC(=O)c2cc3cc(NS(C)(=O)=O)ccc3s2)c1` [Example 423, 5-(methylsulfonamido)-N-(3-(1-phenylvinyl)phenyl)benzo[b]thiophene-2-carboxamide], the IC50 is 0.26 µM in experiment [1], 0.094 µM in experiment [2] and 1.1 µM in experiment [3].

For the compound `CS(=O)(=O)Nc1ccc2sc(C(=O)Nc3cccc(C4(c5ccc(F)cc5)CC4)c3)cc2c1` [Example 424, N-(3-(1-(4-fluorophenyl)cyclopropyl)phenyl)-5-(methylsulfonamido)benzo[b]thiophene-2-carboxamide], the figures for the IC50 in experiment [1], in experiment [2] and in experiment [3] were 0.15 µM, 0.1 µM and 0.5 µM, respectively.

For `CS(=O)(=O)Nc1ccc2cc(C(=O)Nc3cccc(C4(c5ccc(F)cc5)CC4)c3)[nH]c2c1` [Example 425, N-(3-(1-(4-fluorophenyl)cyclopropyl)phenyl)-6-(methylsulfonamido)-1H-indole-2-carboxamide], the IC50 in experiment [1] is 0.46 µM; in experiment [2] it was 0.38 µM; in experiment [3], 1.3 µM.

`COc1cc(NC(=O)c2cc3cc(NS(C)(=O)=O)ccc3s2)cc(C2(c3cc(OC)cc(OC(F)(F)F)c3)CC2)c1` [Example 427, N-(3-methoxy-5-(1-(3-methoxy-5-(trifluoromethoxy)phenyl)cyclopropyl)phenyl)-5-(methylsulfonamido)benzo[b]thiophene-2-carboxamide]: the values for the IC50 in experiment [1], in experiment [2] and in experiment [3] were 0.13 µM, 0.085 µM and 0.41 µM, respectively.

Take `CS(=O)(=O)Nc1ccc2cc(C(=O)Nc3cc(OC(F)F)cc(C4(c5ccc(F)cc5)CC4)c3)[nH]c2c1` [Example 428, N-(3-(difluoromethoxy)-5-(1-(4-fluorophenyl)cyclopropyl)phenyl)-6-(methylsulfonamido)-1H-indole-2-carboxamide]: the IC50 in experiment [1] came out at 1 µM; in experiment [2], 0.39 µM; in experiment [3], 1.4 µM.

In the case of `CS(=O)(=O)Nc1ccc2sc(C(=O)Nc3cc(OC(F)F)cc(C4(c5ccc(F)cc5)CC4)c3)cc2c1` [Example 429, N-(3-(difluoromethoxy)-5-(1-(4-fluorophenyl)cyclopropyl)phenyl)-5-(methylsulfonamido)benzo[b]thiophene-2-carboxamide], the IC50 in experiment [1] is 0.19 µM; in experiment [2], 0.086 µM; in experiment [3], 0.35 µM.

Regarding `CS(=O)(=O)Nc1ccc2cc(C(=O)Nc3cccc(C(=O)c4ccccc4)c3)[nH]c2c1` [Example 434, N-(3-benzoylphenyl)-6-(methylsulfonamido)-1H-indole-2-carboxamide], the half-maximal inhibitory concentration (IC50) in experiment [1] is 6.5 µM; in experiment [2] it was 2.9 µM; in experiment [3], greater than 10 µM.

Take `CC(O)(c1ccccc1)c1cccc(NC(=O)c2cc3ccc(NS(C)(=O)=O)cc3[nH]2)c1` (stereo not drawn) [Example 435, N-(3-(1-hydroxy-1-phenylethyl)phenyl)-6-(methylsulfonamido)-1H-indole-2-carboxamide]: the figures for the IC50 in experiment [1], in experiment [2] and in experiment [3] were 5.8 µM, 4.3 µM and greater than 10 µM, respectively.

In general, IC50 refers to the point on the concentration scale where inhibition reaches its midpoint. A high value points to weaker potency in that assay.
